Key:
[1] = tested on: mSOD1^(G93A) transgenic mice
Description: Transgenic mSOD1^(G93A) mice of both sexes were used in this study.

[2] = tested on: mSOD1^(G93A) transgenic mice; details: mouse, in vivo

SMILES: O=C(O)CC(O)(CC(=O)O)C(=O)O.[O-][n+]1cccc(C(Cl)=NOC[C@H](O)CN2CCCCC2)c1 [compound A, (+)-R-N-[2-hydroxy-3-(1-piperidinyl)-propoxy]-pyridine-1-oxide-3-carboximidoyl chloride citrate]
- half relaxation time of EDL (mean +/- S.E.M.) ([1]; 10 mg/kg i.p. daily from 35 days of age, 120 days of age, n=10, p=0.030 vs untreated (43.3 ms), wild-type 25.8 ms): 32.2 ms
- motor units survived in EDL muscles (mean +/- S.E.M.) ([1]; 10 mg/kg i.p. daily from 35 days of age, assessed at 120 days of age, n=10, p=0.003 vs untreated (8.3), wild-type 28): 14.3 +/−0.6
- fatigue index (FI) of EDL (mean +/- S.E.M.) ([1]; 10 mg/kg i.p. daily, 120 days of age, stimulation 40 Hz, 3 minutes, n=10, p<0.05 vs untreated (0.255), wild-type 0.848): 0.416+/−0.07
- average lifespan (mean +/- S.E.M.) ([1]; treated mSOD1^(G93A) mice, n=7, untreated 125 days, endpoint: inability to right itself and loss of approximately 20% body weight): 153 ± 2.6 days
- decline in body weight ([1]; treated vs untreated mSOD1^(G93A) mice): delayed
- increase in lifespan ([1]; treated vs untreated mSOD1^(G93A) mice, p<0.001): over 22%
- motoneurons surviving in the sciatic motor pool (mean +/- S.E.M.) [2]: 412+/−28

Reference: patent US20150126551A1, “USE OF A […] HALIDE DERIVATIVE IN THE TREATMENT OF NEURODEGENERATIVE DISEASES” (Orphazyme ApS, priority 2003, published 2015)
